Consider 3 compounds from ChEMBL document CHEMBL1131799, “Polyunsaturated fatty acid anilides as inhibitors of acyl-coA: cholesterol acyltransferase (ACAT)” (Bioorg Med Chem Lett, 1999).

Test [1] has as its target T1, Acyl-CoA:cholesterol acyltransferase (Oryctolagus cuniculus, UniProt Q95214).
T1 sequence (Q95214 whole entry): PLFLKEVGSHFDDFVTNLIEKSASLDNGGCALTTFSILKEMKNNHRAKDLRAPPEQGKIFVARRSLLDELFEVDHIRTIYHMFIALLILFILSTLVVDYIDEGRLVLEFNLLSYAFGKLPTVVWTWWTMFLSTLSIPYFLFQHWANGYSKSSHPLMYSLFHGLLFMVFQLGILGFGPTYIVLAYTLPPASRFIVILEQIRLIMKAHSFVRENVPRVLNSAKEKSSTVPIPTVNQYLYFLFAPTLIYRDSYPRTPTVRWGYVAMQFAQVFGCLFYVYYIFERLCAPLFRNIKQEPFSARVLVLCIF
The test can be described thus: Compound was tested for inhibitory activity against ACAT from rabbit liver.

Test [2] addresses T1, Acyl-CoA:cholesterol acyltransferase. The test can be described thus: Compound was tested for inhibitory activity against ACAT from rabbit adrenal gland. It counts as tissue-based.
Another test has as its target O-acyltransferase (Oryctolagus cuniculus, UniProt G1SFD9). The test can be described thus: Compound was tested for inhibitory activity against ACAT from rabbit intestine. It counts as tissue-based.

Chain of O-acyltransferase (G1SFD9 1-524): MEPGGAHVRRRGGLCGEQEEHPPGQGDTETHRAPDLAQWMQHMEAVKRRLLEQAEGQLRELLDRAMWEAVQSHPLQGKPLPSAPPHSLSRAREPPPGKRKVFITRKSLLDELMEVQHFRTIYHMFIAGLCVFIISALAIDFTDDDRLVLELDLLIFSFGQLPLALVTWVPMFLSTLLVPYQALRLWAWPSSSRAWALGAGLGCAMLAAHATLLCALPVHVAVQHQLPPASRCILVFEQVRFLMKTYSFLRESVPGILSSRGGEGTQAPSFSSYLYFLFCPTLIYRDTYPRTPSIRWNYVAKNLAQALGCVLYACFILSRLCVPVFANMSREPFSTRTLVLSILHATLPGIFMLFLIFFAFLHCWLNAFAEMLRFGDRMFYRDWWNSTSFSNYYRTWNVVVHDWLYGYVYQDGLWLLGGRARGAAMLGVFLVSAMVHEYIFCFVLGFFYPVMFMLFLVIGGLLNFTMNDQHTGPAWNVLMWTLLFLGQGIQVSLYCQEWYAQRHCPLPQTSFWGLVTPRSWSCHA

Broadly, the IC50 is the point on the concentration scale where inhibition reaches its midpoint. A high value points to weaker potency. In the case of `C/C=C/C/C=C/C/C=C/C/C=C/C/C=C/C/C=C/CCCC(=O)Nc1c(C(C)C)cccc1C(C)C`, the IC50 was 0.056 µM in test [1], 0.228 µM in test [2] and 0.045 µM on O-acyltransferase.

For `CCCCCCCCCCCCCC(=S)Nc1c(C(C)C)cccc1C(C)C`, the IC50 in test [1] turned out to be 0.015 µM; in test [2], 0.554 µM; against O-acyltransferase, 0.006 µM.

As to `CCCCCCCCCCC(C)(C)C(=O)Nc1c(OC)cc(OC)cc1OC` [CL-976], the IC50 in test [1] is 0.191 µM; in test [2], 1.95 µM.
